According to patent US20040171045A1, “Assay for predicting cell activity” (IsoTis N.V., priority 2001, published 2004):

System: human bone marrow stromal cells (HBMSC)
Test: Temporal expression of ALP in HBMSC cultures by flow cytometry, (+) dex versus control medium
Format: cell-based
Details: 10^−8 M dex, average of day 3 to day 9
Description: The expression of ALP was evaluated by flow cytometry at several culture periods (from day 1 to day 9, three to four measurements were performed for each culture). Briefly, after trypsinisation, cells were washed twice in wash buffer and blocked against non-specific binding (see above). Cells (approx. 0.1-0.3E6/staining) were then resuspended in blocking buffer containing: (a) control mouse anti-human IgG2a (1:5 dilution) and (b) ALP monoclonal antibody (1:10 dilution). After incubation on ice for 45 minutes and washing, antibody reactivity was detected by suspending the cells with blocking buffer containing goat anti-mouse IgGγ-chain-specific-FITC (1:5 dilution). Cells were incubated on ice and in the dark for 30 minutes. After washing, the cells were resuspended in 200 μl of FACS-flow/staining and analyzed using a FACS Calibur apparatus (Becton Dickinson Immunocytometry systems). For each measurement 10,000 events were collected.

## C[C@@H]1C[C@H]2[C@@H]3CCC4=CC(=O)C=C[C@]4(C)[C@@]3(F)[C@@H](O)C[C@]2(C)[C@@]1(O)C(=O)CO [dex, dexamethasone]
Donor 1 (U00079)
  Ratio between the fraction of ALP+ cells in the (+) dex and control conditions: 1.53
Donor 2 (U00084)
  Ratio between the fraction of ALP+ cells in the (+) dex and control conditions: 1.53
Donor 3 (U00169)
  Ratio between the fraction of ALP+ cells in the (+) dex and control conditions: 1.40
Donor 4 (U00182-2)
  Ratio between the fraction of ALP+ cells in the (+) dex and control conditions: 2.71
Donor 5 (U00212)
  Ratio between the fraction of ALP+ cells in the (+) dex and control conditions: 2.53
Donor 6 (U00230)
  Ratio between the fraction of ALP+ cells in the (+) dex and control conditions: 1.52
Donor 7 (U00106)
  Ratio between the fraction of ALP+ cells in the (+) dex and control conditions: 1.25
Donor 8 (U00173)
  Ratio between the fraction of ALP+ cells in the (+) dex and control conditions: 3.72
Donor 9 (U00174)
  Ratio between the fraction of ALP+ cells in the (+) dex and control conditions: 1.56
Donor 11 (U00179)
  Ratio between the fraction of ALP+ cells in the (+) dex and control conditions: 2.40
Donor 12 (U00090)
  Ratio between the fraction of ALP+ cells in the (+) dex and control conditions: 2.56
Donor 13 (U00180)
  Ratio between the fraction of ALP+ cells in the (+) dex and control conditions: 1.55
Donor 14 (U00091)
  Ratio between the fraction of ALP+ cells in the (+) dex and control conditions: 1.80
